Literature values in article PMC2884396 (Journal of medicinal chemistry, 2010).

How the values were obtained:
[1] = test system: glucocorticoid receptor (GR); conditions: ref [24]-[27]
androgen receptor (AR) = conditions: ref [24]-[27]

Cn1c(C#N)ccc1-c1ccc2c(c1)C(C)(C)OC(=S)N2 [Tanaproget (1), Tanaproget]
affinity for GR [1]: very low affinity
affinity for AR (androgen receptor (AR)): very low affinity
